{
  "source": "patent US20140093942A1",
  "about": "“GENE, ARS-R ANCHORAGE CASSETTE, ARS-R EXPRESSION-ANCHORAGE CASSETTE, RECOMBINANT PLASMID, BACTERIAL TRANSGENIC LINEAGE, USE OF SAID GENE, USE OF SAID LINEAGE IN ENVIRONMENTAL BIOREMEDIATION PROCESSES” (UNIVERSIDADE DE SÃO PAULO - USP, priority 2012, published 2014)",
  "key": {"E. coli UT5600": {"tested_on": "E. coli UT5600", "test": "Minimal Inhibitory Concentration (MIC) of Na3As04, wild type E. coli UT5600", "type": "cell-based, Escherichia coli", "conditions": "Na3As04 0-50 mM, 28° C., 48 h, OD600", "description": "(§1) Panel C illustrates the comparison between the growth levels of E. coli wild type and recombinant cells in the presence of different concentrations of Na3As04 ranging from 0-50 mM. After incubation at 28° C. for 48 h, the bacterial growth was measured by reading the absorbance at 600 nm (OD600) in a spectrophotometer.\n(§2) To find out whether the recombinant E. coli UT5600/pCM-As lineage had increased resistance to arsenate ions, as compared to the UT5600 lineage from which it is derived, the MIC against Na3As04 of each of the lineages was determined.\n(§3) The final bacterial growth in different Na3As04 concentrations was quantified by Absorbance reading at 600 ηm (FIG. 10C). The assays were performed in triplicate, showing similar results."}, "E. coli UT5600/pCM-As": {"tested_on": "E. coli UT5600/pCM-As", "test": "Minimal Inhibitory Concentration (MIC) of Na3As04, recombinant E. coli UT5600/pCM-As", "type": "cell-based, Escherichia coli", "conditions": "Na3As04 0-50 mM, 28° C., 48 h, OD600", "description": "as §1, §2, §3"}, "C. metallidurans CH34": {"tested_on": "C. metallidurans CH34", "test": "Minimal Inhibitory Concentration (MIC) of Na3As04, wild type C. metallidurans CH34", "type": "cell-based, Cupriavidus metallidurans", "conditions": "Na3As04 0-1,000 mM, 28° C., 48 h, OD600", "description": "After incubation at 28° C. for 48 h, the bacterial growth was measured by reading the absorbance at 600 nm (OD600) in a spectrophotometer.\nThe MIC of C. metallidurans CH34 and C. metallidurans CH34/pCM-As cells against As5+ ions were also studied. […] The MIC of Na3As04 for C. metallidurans CH34/pCM-As was above 1,000 mM, indicating an increase in survivability to As5+ ions above 100% (FIG. 11B). The bacterial growth for the MIC assays was quantified by Absorbance reading at 600 nm (FIG. 11C). The assays were performed in triplicate, showing similar results."}},
  "data": [
    {"substance": "sodium arsenate [Na3As04]", "values": [
      {"measurement": "Minimum Inhibitory Concentration (MIC)", "setting": "E. coli UT5600", "value": 25, "unit": "mM"},
      {"measurement": "Minimum Inhibitory Concentration (MIC)", "setting": "E. coli UT5600/pCM-As", "value": 50, "unit": "mM"},
      {"measurement": "Minimum Inhibitory Concentration (MIC)", "setting": "C. metallidurans CH34", "value": 500, "unit": "mM"}
    ]}
  ]
}
